Key:
Alternaria brassicae = assay: In vivo test on Alternaria brassicae (leaf spot of crucifers); conditions: radish plants (Pernot variety), preventive spray at 330 ppm, contamination after 24 hours, grading 6 to 7 days after contamination vs control plants
Procedure: (§1) The active ingredients tested are prepared by potter homogenisation in a mixture of acetone/tween/water. This suspension is then diluted with water to obtain the desired active material concentration.
Radish plants (Pernot variety), sown on a 50/50 peat soil-pozzolana substrate in starter cups and grown at 18-20° C., are treated at the cotyledon stage by spraying with the active ingredient prepared as described above.
Plants, used as controls, are treated with the mixture of acetone/tween/water not containing the active material.
After 24 hours, the plants are contaminated by spraying them with an aqueous suspension of Alternaria brassicae spores (40,000 spores per cm^3). The spores are collected from a 12 to 13 days-old culture.
The contaminated radish plants are incubated for 6-7 days at about 18° C., under a humid atmosphere.
Grading is carried out 6 to 7 days after the contamination, in comparison with the control plants.

Pyrenophora teres = assay: In vivo test on Pyrenophora teres (barley net blotch); conditions: barley plants (Express variety), preventive spray at 330 ppm, contamination after 24 hours, grading 12 days after contamination vs control plants
Procedure: as §1
Barley plants (Express variety), sown on a 50/50 peat soil-pozzolana substrate in starter cups and grown at 12° C., are treated at the 1-leaf stage (10 cm tall) by spraying with the active ingredient prepared as described above. Plants, used as controls, are treated with the mixture of acetone/tween/water not containing the active material.
After 24 hours, the plants are contaminated by spraying them with an aqueous suspension of Pyrenophora teres spores (12,000 spores per ml). The spores are collected from a 12-day-old culture. The contaminated barley plants are incubated for 24 hours at about 20° C. and at 100% relative humidity, and then for 12 days at 80% relative humidity.
Grading is carried out 12 days after the contamination, in comparison with the control plants.

In the case of `O=C(NCCCc1ncc(C(F)(F)F)cc1Cl)c1ccccc1C(F)(F)F` [Compound 1, N-{3-[3-chloro-5-(trifluoromethyl)pyridin-2-yl]propyl}-2-(trifluoromethyl)benzamide], the protection (Alternaria brassicae) was “at least 70%” and the protection (Pyrenophora teres) was “at least 70%”.

From patent publication US20100324102A1, “N-(3-PYRIDIN-2-YLPROPYL) BENZAMIDE DERIVATIVES AS FUNGICIDES” (BAYER CROPSCIENCE AG, priority 2006, published 2010)
